# According to patent US11219627B2, “Clearance of amyloid beta” (priority 2014, dated 2022):
# B1: BDNF: brain-derived neurotrophic factor, positive control, gold standard of the neurite assay (protein, UniProt P23560 19-247, looked up)
# Neurotrophic factor BDNF …: APMKEANIRGQGGLAYPGVRTHGTLESVNGPKAGSRGLTSLADTFEHVIEELLDEDQKVRPNEENNKDADLYTSRVMLSSQVPLEPPLLFLLEEYKNYLDAANMSMRVRRHSDPARRGELSVCDSISEWVTAADKKTAVDMSGGTVTVLEKVPVSKGQLKQYFYETKCNPMGYTKEGCRGIDKRHWNSQCRTTQSYVRALTMDSKKRIGWRFIRIDTSCVCTLTIKRGR
# How the values were obtained:
# [1] = system: patients with moderate, but not mild Alzheimer's disease; details: 36-week study; cited from earlier work
# [2] = system: mild to moderate Alzheimer patients; details: 78-week study; cited from earlier work
# [3] = liver microsome stability; assay type: in vitro ADME, Mouse
# [4] = system: Primary rat cultured cortical neurons; details: cited from earlier work
# patients with mild AD = details: 12 weeks; cited from earlier work
# CaCo-2 cells = assay: in vitro permeability of a layer of CaCo-2 cells; assay type: in vitro ADME, human; details: for mean A−>B Papp (apparent permeability): test conc 50 μM
# Rat cortical neurons = assay: neurite network assessment with Aβ1-42 oligomers in cortical cell culture; assay type: cell-based
# Experimental: Rat cortical neurons were cultured as described by Callizot et al (J Neurosci Res 2013, 91:706-716). On day 11 of culture, Aβ oligomer solution, 20 μM, was applied. The Aβ oligomer preparation, having an average weight of 90 kDa, prepared as described by Callizot et al (op cit) contained only diffusible species, not fibrils or protofibrils. Briefly, Aβ1-42 peptide at a concentration of 40 μM was dissolved in the culture medium, gently agitated for 3 days at 37° C. in the dark, and used immediately after dilution. SDL 11349 and BDNF (50 ng/ml) were dissolved in culture medium (maximum of 0.1% DMSO final concentration) then pre-incubated with primary cortical neurons for 24 h before the Aβ1-42 oligomer solution application.
# The oligomers were incubated with the neurons and various concentrations of SDL 11349, or BDNF, 50 ng/ml, the positive control, for 24 hours, in 6 replicates per condition. Then the supernatant was removed and the neurons were fixed with a cold ethanol and acetic acid solution. The cells were permeabilized with 0.1% saponin and then incubated for 2 h with mouse monoclonal antibody […] microtubule-associated protein 2 (MAP-2). Subsequently, Alexa-Fluor 488 goat anti-mouse IgG was applied, and images were obtained and analyzed automatically.
# mice = details: cited from earlier work
# [5] = system: CA1 pyramidal neurons in the dorsal hippocampus; assay: dendritic spine assessment after 5 days ip treatment; assay type: in vivo, mice
# Experimental: Adult C57B16 mice, (8 weeks old) were administered vehicle or SDL 11349, 0.005, 0.03, 0.07, 0.1 or 0.2 mg/kg, ip, per day for five days prior to sacrifice after rapid anesthetization with isofluorane. Brain tissue was sectioned into […] slices from anterior to posterior extremes.
# Ballistic dye labelling was performed, followed by laser-scanning confocal microscopy (Olympus FV1000) using a 63× objective (1.42 NA) to scan individually labelled neurons at high resolution (0.103×0.103×0.33 μm voxels). Target neurons were identified in the brain region of interest by anatomical location and cell morphology. Microscopy was performed blind to experimental conditions. A minimum of 5 samples per animal were measured for each segment.
# Blind deconvolution (AutoQuant) was applied to raw three-dimensional digital images which were then analyzed for spine density and morphology by trained analysts. Individual spines were measured manually for (a) head diameter, (b) length, and (c) neck thickness from image Z-stacks using custom-built Afraxis ESP software. Each dendrite was analyzed by 3 independent analysts.
# Automated image assignment software (C++) distributed images to analysts in a randomized manner and ensured that each analyst performed measurements of near equal numbers of dendrites per group. Analysts were blinded to all experimental conditions. […] For spine density and spine morphological classification, data across analysts were averaged to report data for each dendrite. Data population values (N's) were reported from dendrites collected equally from all mice.
# Values are reported in tables and plots as group means±standard errors of the mean (SEMs). For all group comparisons of parametric values, statistical significance was determined using the analysis of variance test (ANOVA; SPSS). Post-hoc comparisons were assessed using the Student's t-test (2 tails). […]
# Dendritic spine morphology was analyzed from samples taken from secondary apical dendrites, and secondary basal dendrites of CA1 pyramidal neurons in the dorsal hippocampus. […] A 50 μm segment was analyzed from each location.
# [6] = system: Mice with lesions of the nucleus basalis magnocellularis (nBm); details: cited from earlier work
# acetylcholinesterase [7] = molecular target: T1, acetylcholinesterase (Homo sapiens, UniProt P22303); assay: acetylcholinesterase inhibition; assay type: biochemical
# T1 sequence (P22303 32-614, species assumed): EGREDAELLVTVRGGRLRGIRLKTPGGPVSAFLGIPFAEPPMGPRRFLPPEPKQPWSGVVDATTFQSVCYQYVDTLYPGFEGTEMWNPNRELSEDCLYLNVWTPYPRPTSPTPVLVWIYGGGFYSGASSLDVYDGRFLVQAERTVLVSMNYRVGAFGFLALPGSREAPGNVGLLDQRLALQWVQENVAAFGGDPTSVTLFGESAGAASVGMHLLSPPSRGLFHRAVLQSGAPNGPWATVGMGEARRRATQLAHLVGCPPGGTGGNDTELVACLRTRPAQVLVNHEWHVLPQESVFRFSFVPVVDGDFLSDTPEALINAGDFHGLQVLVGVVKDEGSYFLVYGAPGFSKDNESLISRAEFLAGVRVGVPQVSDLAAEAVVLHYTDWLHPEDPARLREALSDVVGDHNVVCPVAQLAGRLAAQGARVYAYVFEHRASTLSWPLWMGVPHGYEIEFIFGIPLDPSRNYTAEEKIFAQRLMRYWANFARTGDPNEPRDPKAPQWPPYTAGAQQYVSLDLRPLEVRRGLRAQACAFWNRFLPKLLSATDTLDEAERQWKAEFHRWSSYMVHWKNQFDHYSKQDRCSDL
# Description: This compound was first described in Han et al as a cholinesterase inhibitor in Bioorg. & Medicinal Chemistry Letters 1, 11 579-580 (1991).
# Bv-2 microglial cells = assay: Abeta 1-42 oligomer clearance in microglial Bv-2 cell culture; assay type: cell-based; details: applied for 24 hours, 0.11 to 0.67 μM; oligomerized Aβ1-42 10 μM for 6 h
# Experimental: Abeta oligomers were prepared using beta-amyioid (1-42) from American Peptide (Product #62-0-80). One aliquot was dissolved in an adequate volume of TBS (50 mM Tris-Buffer, 150 mM NaCl, pH=7.4) to achieve a final concentration of 1.7 mg/ml (corresponding to 340 μM). The solution was sonicated for 2 minutes and then diluted 1:2 in water to obtain a final concentration of 170 μM. Next, the Abeta was allowed to aggregate at 4′C for 48 hours. Prior to application, the solution was sonicated for another minute.
# Bv-2 microglial cells were kept in culture medium (DMEM medium, 10% FBS, 2 mM glutamine, 1% Penc/Strep) until 80-90% confluency. Cells were maintained at 37° C., 95% humidity and 5% CO2. Afterwards, cells were seeded in culture medium on 24-well plates at a cell density of 1×10^5 cells per well. After 24 h, the medium was exchanged for the treatment medium (DMEM medium, 5% FBS, 2 mM glutamine). […] The medium was separated by affinity (removing monomers) and the oligomers not phagocytosed were disaggregated by HFIP treatment and measured by MSD. […]
# The immune assay was carried out according to the manual and plates were read on the Sector Imager (MSD). Analyte levels were evaluated according to adequate Aβ peptide standards (MSD). […] Group differences are evaluated by one-way ANOVA.
# α7 nicotinic receptors = molecular target: T2, α7 nicotinic receptors (Rattus norvegicus, UniProt Q05941); details: cited from earlier work
# T2 construct: Primary cultured rat neurons can be depolarized by the application of 1.5 mM choline; endogenous in cells; host or cells: primary cultured rat neurons
# T2 sequence (Q05941 23-502): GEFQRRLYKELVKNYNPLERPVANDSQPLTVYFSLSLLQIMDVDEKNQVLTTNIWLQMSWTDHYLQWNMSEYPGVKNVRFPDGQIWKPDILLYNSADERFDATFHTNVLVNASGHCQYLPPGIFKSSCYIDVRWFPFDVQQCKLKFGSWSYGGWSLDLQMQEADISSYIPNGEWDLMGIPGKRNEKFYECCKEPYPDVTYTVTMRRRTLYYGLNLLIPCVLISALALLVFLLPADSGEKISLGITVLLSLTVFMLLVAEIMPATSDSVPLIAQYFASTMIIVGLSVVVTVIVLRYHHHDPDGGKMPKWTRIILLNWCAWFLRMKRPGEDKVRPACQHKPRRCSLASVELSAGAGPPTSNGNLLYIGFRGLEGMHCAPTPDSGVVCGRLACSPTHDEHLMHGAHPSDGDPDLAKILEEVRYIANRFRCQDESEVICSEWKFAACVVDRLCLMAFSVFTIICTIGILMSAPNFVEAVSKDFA
# acetylcholinesterase [8] = molecular target: T1, acetylcholinesterase; details: read-out: IC50 for acetylcholinesterase inhibition; cited from earlier work
# [9] = stability in mouse plasma
# [10] = 78-week study; cited from earlier work
# γ-secretase [11] = details: cited from earlier work
# γ-secretase [12] = details: in vivo; cited from earlier work
# [13] = system: adrenal chromaffin and human neuroblastoma cells; details: cited from earlier work
# γ-secretase [14] = details: human, in vivo; cited from earlier work
molecule,measurement,setting,value
Oc1c(I)cc(Cl)c2cccnc12 [Clioquinol],ADAS-cog,[1],decreased deterioration on the ADAS-cog
"O[C@H]1[C@H](O)[C@@H](O)[C@H](O)[C@@H](O)[C@@H]1O [ELND005, scyllo-inositol]",CSF Aβ and ventricular volume,[2],Significant decreases in CSF Aβ and increases in ventricular volume
same,cognitive or behavioral tests,[2],no benefit on any cognitive or behavioral test
COc1ccc2c3c1O[C@H]1C[C@@H](O)C=C[C@@]31CCN(C)C2 [Galanthamine HBr],NADPH-dependent T1/2 (half-life),"[3]; 5.0 μM, Mouse",>1 h
same,NADPH-free T1/2 (half-life),"[3]; 5.0 μM, Mouse",>1 h
CN1CCCC1c1cccnc1 (centres unmarked) [Nicotine],protection against Aβ plus glutamate toxicity,[4],protective against Aβ plus glutamate toxicity
CN(C)Cc1ccc2c(Cl)cc(Cl)c(O)c2n1 [PBT2],CSF Aβ42,patients with mild AD,decreased significantly
CNC(=C[N+](=O)[O-])NCCSCc1ccc(CN(C)C)o1 [Ranitidine],mean A−>B Papp (apparent permeability),CaCo-2 cells,1.1 10^−6 cm s^−1
"CCCCNC(=O)O[C@H]1C=C[C@@]23CCN(C)Cc4ccc(OC)c(c42)O[C@H]3C1 [SDL 11349, n-butylcarbamate derivative (4aS,6R,8aS)-5,6,9,10,11,12-hexahydro-3-methoxy-11-methyl-4aH-[1]benzofuro[3a,3,2-ef][2]benzazepin-6-ol]",effect on Aβ oligomer-induced loss of neurite network,"Rat cortical neurons; 1 μM, Aβ oligomer 20 μM, 24 h",blocked the toxic effect of the Aβ oligomers
same,dose at which decreased motility appeared,mice,> 30 mg/kg
same,lethality (no lethality up to),mice,> 100 mg/kg
same,adverse effects observed,mice; doses of 50-100 mg/kg,"wobbly and off-balance with rapid heart rate still present at 4 hours, but were recovered at 24 hours"
same,"total spine density, basal samples",[5]; 0.005-0.2 mg/kg ip per day for five days,no effect
same,"total spine density, apical dendritic samples, versus vehicle","[5]; 0.005-0.2 mg/kg ip per day for five days, all dose groups","statistically significant difference (p<0.05, 2-tailed t-test) or trend (p<.01) compared to vehicle controls"
same,mature spines on apical dendrites of CA1 pyramidal neurons,[5]; treatment for 5 days,specifically increases mature spines
same,predicted oral bioavailability,CaCo-2 cells; based on in vitro CaCo-2 permeability,80%
same,mean A−>B Papp (apparent permeability),CaCo-2 cells,20.8 10^−6 cm s^−1
same,additional time remaining in the lighted compartment versus saline,"[6]; given during training, optimal performance",about 100 seconds
same,best dose for memory enhancement,[6]; passive avoidance,0.5 mg/kg
same,enzymatic activity relative to galantamine,acetylcholinesterase [7],about 36%
same,reduction of β-amyloid oligomer concentration in the medium,Bv-2 microglial cells,38-40%
same,enhancement of the depolarization caused by choline,"α7 nicotinic receptors; 1 μM, 1.5 mM choline",15.9±2.1%
same,"enhancement in presence of FK-1, antibody to the galantamine recognition site",α7 nicotinic receptors,blocked
same,IC50,acetylcholinesterase [8],1090 nM
same,plasma concentrations at two hours compared with galantamine,[9],slightly lower than those of galantamine
same,stability in mouse plasma,[9],stable for greater than two hours
same,NADPH-free T1/2 (half-life),"[3]; 5.0 μM, Mouse",>1 h
same,half-life in liver microsomes,[3]; in-vitro preparation,greater than 60 minutes
same,microsomal CLint at 5 μM,"[3]; liver microsomes, 5.0 μM, Mouse, read-out: NADPH-dependent CLint (microsomal intrinsic clearance)",23.5 µL/min/mg
NCCCS(=O)(=O)O [Tramiprosate],ADAS-cog,[10],trend towards improvement on the ADAS-cog
same,hippocampal volume,[10],reduction of hippocampal volume loss
NC(=O)[C@@H](CCC(F)(F)F)N(Cc1ccc(-c2ncon2)cc1F)S(=O)(=O)c1ccc(Cl)cc1 [avagacestat],CSF Aβ40,"γ-secretase [11]; human, in vivo",effectively reduces CSF Aβ40
same,conversion to dementia,"γ-secretase [11]; prodromal Alzheimer's disease, reduced CSF Aβ42",no reduction in conversion to dementia
CC(C)[C@H](O)C(=O)N[C@@H](C)C(=O)N[C@@H]1C(=O)N(C)CCc2ccccc21 [semagacestat],CSF Aβ,γ-secretase [12],potently decreased CSF Aβ
same,reason for termination of Phase III trials,γ-secretase [12],"poorer performance in treated than placebo patients, and an increased incidence of skin cancer"
Nc1c2c(nc3ccccc13)CCCC2 [tacrine],neuroprotective effect,[13],did not occur
C[C@@H](C(=O)O)c1ccc(-c2ccccc2)c(F)c1 [tarenflurbil],Phase III outcome,γ-secretase [14],failed in Phase III
B1,effect on Aβ oligomer-induced loss of neurite network,"Rat cortical neurons; 50 ng/ml, positive control",preserves the neurite network
